This note sets out measurements from PMC10477886, “Adamantaniline Derivatives Target ATP5B to Inhibit Translation of Hypoxia Inducible Factor‐1α” (Advanced Science, 2023).

Experiment [1] deals with HIF‐1α transcriptional activity. Nature of the experiment: dual‐luciferase assay (HRE‐Firefly Luciferase / renilla) of HIF‐1α transcriptional activity in HEK293T cells. Type of experiment: cell-based, human. In a few lines: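 Stable HEK293T line carrying HRE-firefly luciferase, renilla and HIF-1α P402A/P564A mutant, giving HIF-1α expression under normoxia. Compounds incubated 24 h at 37 °C; firefly/renilla luciferase ratio read as HIF-1α transcriptional activity.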

Experiment [2] deals with T1, interaction between ATP5B and HIF‐1α mRNA (Homo sapiens, UniProt P06576).
T1 construct: endogenous in cells
T1 sequence (P06576 48-529): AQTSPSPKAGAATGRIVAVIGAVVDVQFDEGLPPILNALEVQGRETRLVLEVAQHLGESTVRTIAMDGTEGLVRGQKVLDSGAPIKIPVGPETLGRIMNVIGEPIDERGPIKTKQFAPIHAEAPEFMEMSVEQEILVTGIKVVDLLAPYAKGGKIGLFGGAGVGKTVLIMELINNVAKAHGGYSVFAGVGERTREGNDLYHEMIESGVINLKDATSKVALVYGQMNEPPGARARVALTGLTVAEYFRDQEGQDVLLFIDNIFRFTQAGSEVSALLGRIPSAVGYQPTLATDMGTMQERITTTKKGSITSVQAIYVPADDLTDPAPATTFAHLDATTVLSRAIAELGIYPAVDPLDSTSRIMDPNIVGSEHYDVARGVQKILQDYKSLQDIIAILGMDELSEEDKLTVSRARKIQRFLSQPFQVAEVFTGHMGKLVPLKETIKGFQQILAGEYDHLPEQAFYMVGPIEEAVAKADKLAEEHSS
Nature of the experiment: RNA‐binding protein immunoprecipitation. Type of experiment: cell-based. Conditions: immunoprecipitation with anti‐ATP5B antibody. The text has this:
It has been reported recently that KUSC‐5037 inhibited HIF‐1α transcription by suppressing FoF1‐ATP synthase activity.^[ [35] ^] Thus, we wondered whether HI‐101 inhibited HIF‐1α translation in a similar way. Several ATP synthase inhibitors with various mechanisms of action have been reported.^[ [54] ^] Among them, Oligomycin inhibits the ATP synthase activity by binding the FO domain; Bedaquiline, an FDA‐approved drug, inhibits mitochondrial ATP production by targeting the gamma subunit of the ATP synthase;^[ [55] ^] Aurovertin B decreases ATP synthase activity by targeting the subunits of F1 domain. We first measured HIF‐1α transcriptional activity and protein level with the presence of reported ATP synthase inhibitors. […] A recent study reported that ATP5B shut down mPTP by binding circRNA SCAR in an enzymatic‐independent way,^[ [56] ^] which reminded us whether ATP5B played a similar role in blocking HIF‐1α translation. RNA‐binding protein immunoprecipitation was then performed using the Magna RIP RNA‐Binding Protein Immunoprecipitation Kit (Millipore, Burlington, MA) to detect the interaction between ATP5B and HIF‐1α mRNA.

A further experiment has as its target T2, ATP synthase (Bos taurus, UniProt P00829).
T2 construct: purchased Abcam ab109907
Nature of the experiment: MitoTox Complex V OXPHOS activity assay. The format is biochemical. Conditions: up to 50 µM. As for the experimental part: The activity of complex V was determined using the MitoTox Complex V OXPHOS Activity Assay kit from Abcam (ab109907, Cambridge, MA, USA), according to the instructions. The activity of complex V was measured by monitoring the change in absorbance at 340 nm over a period of 2 h at 30 °C. Oligomycin (Selleck, […]) was used as a positive control for the assay.

The subject of the next experiment is HIF‐1α translation. In words: polysome profile analysis. Type of experiment: cell-based, human. Conditions: HEK293T, 12 h with MG‐132, hypoxia. As for the experimental part: Given that HI‐101 affected neither the transcription of HIF‐1α nor its degradation, we next tested whether HI‐101 regulated HIF‐1α translation. Polysome profile analysis is a commonly used method for studying translation process by separating polysomes and ribosomal subunits using a sucrose density gradient (SDG).^[ [53] ^] After treating with HI‐101 or DMSO for 12 h co‐incubated with MG‐132 under hypoxia condition, HEK293T cells were collected and polysome‐bound and polysome‐free mRNAs were isolated by using 10–50% sucrose gradient fractionation.
Polysome RNA preparations and analysis were carried out as previously described.^[ [60] ^] Briefly, cells were seeded in 10 cm dishes, and washed with cold PBS containing 100 µg mL^−1 cycloheximide, and then lysed in a hypotonic lysis buffer [5 mM tris‐HCl (pH 7.5), 2.5 mM MgCl2, 1.5 mM KCl, 100 µg mL^−1 cycloheximide, 2 mM DTT, 0.5% Triton X‐100, and 0.5% sodium deoxycholate]. A lysate sample was used to isolate the cytoplasmic RNA using TRIzol (Invitrogen). […] Gradients were fractionated, and the optical density at 260 nm was continuously detected by a UV detector and fraction collector (Teledyne ISCO). […] Fractions with mRNA associated with polysomes were pooled and HIF‐1α mRNA abundance was detected by RT‐PCR amplification in each fraction of the polysome gradient. […]

What is called inhibition is the drop in the measured response relative to a control, in per cent. Usually IC50 stands for the concentration that inhibits the measured activity by half. Lower therefore signals inhibition by little substance. Regarding `O=C(Nc1ccc(C23CC4CC(CC(C4)C2)C3)cc1)c1cccc(Cl)c1` [1‐3a, N‐(4‐((3r,5r,7r)‐Adamantan‐1‐yl)Phenyl)−3‐Chlorobenzamide], in experiment [1] (Homo sapiens, HEK-293T, 10 µM, incubation 24 h, HEK293T, mean ± s.d. (n = 3), read-out: Inhibition rate [%] @ 10 µM), the inhibition at 10 µM was 81.4 ± 0.9%. Further, in experiment [1] (Homo sapiens, HEK-293T, HEK293T dual‐luciferase, mean ± s.d. (n = 3)), the IC50 worked out at 2000 ± 300 nM. Also, the “HIF‐1α transcriptional activity (luciferase), in words” value in experiment [1] (hit confirmation) is “significantly inhibited HIF‐1α transcriptional activity”. For the same compound, the “HIF‐1α mRNA binding to ATP5B” value in experiment [2] was “improved HIF‐1α mRNA binding to ATP5B”. Moreover, at ATP synthase, the ATP synthase activity entry is “no effect on ATP synthase activity”. Moreover, the “HIF‐1α translation” value with HIF‐1α translation is recorded as “efficiently inhibited HIF‐1α translation”.
